# Experimental data taken from article PMC8523698, “Preclinical characterization of an intravenous coronavirus 3CL protease inhibitor for the potential treatment of COVID19” (Nature Communications, 2021).
# Several values for one entry are separate records, joined by “and”; a condition that tells them apart may be missing. Identical values can stand only once. Like-named read-outs stand apart in the source and are kept apart here.
# Legend:
# HCoV-229E = assay: Viral CPE assay in MRC-5 cells (CellTiter Glo); assay type: cell-based
# [1] = Plasma protein binding by equilibrium dialysis; conditions: monkey plasma, 3.44 uM; for fraction unbound at 6 h, 3.44 uM: plasma
# CYP1A2 = molecular target: T1, CYP1A2 (Homo sapiens, UniProt P05177); assay: Reversible CYP inhibition in human liver microsomes; conditions: for activity at 0.01 µM / activity at 0.158 µM / activity at 0.398 µM / activity at 1 µM / activity at 15.8 µM / activity at 39.8 µM / activity at 100 µM: human, microsomes, pH 7.4, Percent of Control Activity
# T1 sequence (P05177 1-516): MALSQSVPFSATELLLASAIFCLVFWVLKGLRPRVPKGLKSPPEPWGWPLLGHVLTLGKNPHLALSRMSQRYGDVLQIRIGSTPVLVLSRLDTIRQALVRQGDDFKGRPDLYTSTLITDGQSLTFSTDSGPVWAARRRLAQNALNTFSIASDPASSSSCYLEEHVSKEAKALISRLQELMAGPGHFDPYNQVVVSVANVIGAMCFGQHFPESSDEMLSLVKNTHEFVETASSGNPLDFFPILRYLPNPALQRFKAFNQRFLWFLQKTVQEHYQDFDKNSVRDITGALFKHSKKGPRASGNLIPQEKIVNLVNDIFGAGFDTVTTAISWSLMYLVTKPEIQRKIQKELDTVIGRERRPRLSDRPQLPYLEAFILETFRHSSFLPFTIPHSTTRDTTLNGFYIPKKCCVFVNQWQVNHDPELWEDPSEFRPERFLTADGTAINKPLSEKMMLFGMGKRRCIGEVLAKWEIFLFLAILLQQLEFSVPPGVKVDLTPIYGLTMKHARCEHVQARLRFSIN
# CYP2C19 = CYP2C19 (Homo sapiens, UniProt P33261); assay: as above; conditions: for activity at 0.01 µM / activity at 0.158 µM / activity at 0.398 µM / activity at 1 µM / activity at 15.8 µM / activity at 39.8 µM / activity at 100 µM: human, microsomes, pH 7.4, Percent of Control Activity; for activity at 39.8 µM: CYP 2C19, 39.8 µM
# OAT3 = molecular target: T2, OAT3 (Homo sapiens, UniProt Q8TCC7); assay: Transporter inhibition using transfected HEK293 cells; conditions: IC50, [3H]ES (0.1 µM)
# T2 sequence (Q8TCC7 1-542): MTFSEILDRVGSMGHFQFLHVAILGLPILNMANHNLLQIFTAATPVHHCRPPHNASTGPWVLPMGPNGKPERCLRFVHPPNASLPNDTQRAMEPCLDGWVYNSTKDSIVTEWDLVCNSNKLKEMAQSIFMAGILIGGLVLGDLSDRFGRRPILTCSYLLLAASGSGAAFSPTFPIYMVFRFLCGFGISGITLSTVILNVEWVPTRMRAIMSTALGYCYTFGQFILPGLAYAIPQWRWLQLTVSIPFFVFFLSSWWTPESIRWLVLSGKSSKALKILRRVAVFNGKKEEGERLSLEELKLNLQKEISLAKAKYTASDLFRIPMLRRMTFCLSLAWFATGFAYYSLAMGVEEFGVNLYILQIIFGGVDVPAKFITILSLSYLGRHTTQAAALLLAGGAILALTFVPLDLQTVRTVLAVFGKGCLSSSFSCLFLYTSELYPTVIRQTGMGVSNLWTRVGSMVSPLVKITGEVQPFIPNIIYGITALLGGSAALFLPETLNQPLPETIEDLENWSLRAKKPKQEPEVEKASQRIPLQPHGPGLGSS
# CYP2C19, sequence (P33261 whole entry): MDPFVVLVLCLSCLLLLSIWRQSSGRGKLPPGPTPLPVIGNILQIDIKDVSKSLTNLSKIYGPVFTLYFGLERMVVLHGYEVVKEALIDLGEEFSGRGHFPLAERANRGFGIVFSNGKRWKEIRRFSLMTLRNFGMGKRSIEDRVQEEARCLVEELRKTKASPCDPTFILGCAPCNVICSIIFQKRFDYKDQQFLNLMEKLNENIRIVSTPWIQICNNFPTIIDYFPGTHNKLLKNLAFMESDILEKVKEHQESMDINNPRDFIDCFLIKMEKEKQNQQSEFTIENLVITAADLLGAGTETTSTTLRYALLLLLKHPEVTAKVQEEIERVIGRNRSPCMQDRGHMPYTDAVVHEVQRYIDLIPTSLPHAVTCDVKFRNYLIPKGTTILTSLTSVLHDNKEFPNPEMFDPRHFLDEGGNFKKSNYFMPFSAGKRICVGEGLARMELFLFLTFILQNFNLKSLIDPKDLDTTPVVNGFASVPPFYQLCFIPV
structure (smiles),measurement,setting,value
COc1cccc2[nH]c(C(=O)N[C@@H](CC(C)C)C(=O)N[C@@H](C[C@@H]3CCNC3=O)C(=O)COP(=O)(O)O)cc12 [PF-07304814],EC50,"HCoV-229E; Human coronavirus 229E, MRC5, read-out: EC50 GeoMean (95% CI), efflux inhibitor CP-100356: 0",74 nM
same,EC50,"HCoV-229E; Human coronavirus 229E, MRC5, read-out: EC50 GeoMean (95% CI), efflux inhibitor CP-100356: 0.5 μM",58 nM
same,EC50,"HCoV-229E; MRC-5, plus 0.5 uM efflux inhibitor, one value per run date (N=3), read-out: EC50",81.8 nM
same,"fraction unbound at 6 h, 3.44 uM","[1]; both, Cynomologous, cynomolgus monkey, pH 7.4, Individual fraction unbound, Cynomologous, male and female, Day 1",0.388
same,"fraction unbound at 6 h, 3.44 uM","[1]; both, Cynomologous, cynomolgus monkey, pH 7.4, Individual fraction unbound, Cynomologous, male and female, Day 2",0.356
same,"fraction unbound at 6 h, 3.44 uM","[1]; both, Cynomologous, cynomolgus monkey, pH 7.4, Individual fraction unbound, Cynomologous, male and female, Day 3",0.442
same,Individual fraction unbound,"[1]; Cynomologous, male and female, Day 1",0.366 and 0.39 and 0.393
same,Individual fraction unbound,"[1]; Cynomologous, male and female, Day 2",0.318 and 0.315 and 0.319
same,Individual fraction unbound,"[1]; Cynomologous, male and female, Day 3",0.37 and 0.354 and 0.347
same,"fraction unbound at 6 h, 3.44 uM","[1]; monkey, pH 7.4, fraction unbound Geomean, n=12",0.361
same,IC50,CYP1A2,> 100000 nM
same,Percent of Control Activity,"CYP1A2; CYP 1A2, 0.01 µM, 30-Minute Preincubation, 0.01 µM",103.6% and 101.2%
same,Percent of Control Activity,"CYP1A2; CYP 1A2, 0.01 µM, Zero-Minute Preincubation, 0.01 µM",97.5%
same,Percent of Control Activity,"CYP1A2; CYP 1A2, 0.158 µM, 30-Minute Preincubation, 0.158 µM",95.4% and 101.9%
same,Percent of Control Activity,"CYP1A2; CYP 1A2, 0.158 µM, Zero-Minute Preincubation, 0.158 µM",97.0% and 100.9%
same,Percent of Control Activity,"CYP1A2; CYP 1A2, 0.398 µM, 30-Minute Preincubation, 0.398 µM",101.4% and 101.2%
same,Percent of Control Activity,"CYP1A2; CYP 1A2, 0.398 µM, Zero-Minute Preincubation, 0.398 µM",96.0% and 97.7%
same,Percent of Control Activity,"CYP1A2; CYP 1A2, 1 µM, 30-Minute Preincubation, 1 µM",102.8% and 101.6%
same,Percent of Control Activity,"CYP1A2; CYP 1A2, 1 µM, Zero-Minute Preincubation, 1 µM",94.7% and 96.1%
same,Percent of Control Activity,"CYP1A2; CYP 1A2, 15.8 µM, 30-Minute Preincubation, 15.8 µM",103.2%
same,Percent of Control Activity,"CYP1A2; CYP 1A2, 39.8 µM, 30-Minute Preincubation, 39.8 µM",101.7% and 102.7%
same,Percent of Control Activity,"CYP1A2; CYP 1A2, 39.8 µM, Zero-Minute Preincubation, 39.8 µM",98.4% and 99.6%
same,Percent of Control Activity,"CYP1A2; CYP 1A2, 100 µM, 30-Minute Preincubation, 100 µM",104.3% and 102.5%
same,Percent of Control Activity,"CYP1A2; CYP 1A2, 100 µM, Zero-Minute Preincubation, 100 µM",94.4% and 97.1%
same,IC50,"CYP1A2; Phenacetin O-dealkylation, 30-minute preincubation (T30)",> 100000 nM
same,activity at 0.01 µM,"CYP1A2; CYP 1A2, 0.01 µM, 30-Minute Preincubation",96.7%
same,activity at 0.01 µM,"CYP1A2; CYP 1A2, 0.01 µM, Zero-Minute Preincubation",100%
same,activity at 0.158 µM,"CYP1A2; CYP 1A2, 0.158 µM, 30-Minute Preincubation",102%
same,activity at 0.158 µM,"CYP1A2; CYP 1A2, 0.158 µM, Zero-Minute Preincubation",96.4%
same,activity at 0.398 µM,"CYP1A2; CYP 1A2, 0.398 µM, 30-Minute Preincubation",102%
same,activity at 0.398 µM,"CYP1A2; CYP 1A2, 0.398 µM, Zero-Minute Preincubation",98.5%
same,activity at 1 µM,"CYP1A2; CYP 1A2, 1 µM, 30-Minute Preincubation",100%
same,activity at 1 µM,"CYP1A2; CYP 1A2, 1 µM, Zero-Minute Preincubation",99.4%
same,activity at 15.8 µM,"CYP1A2; CYP 1A2, 15.8 µM, 30-Minute Preincubation",102%
same,activity at 15.8 µM,"CYP1A2; CYP 1A2, 15.8 µM, Zero-Minute Preincubation",100%
same,activity at 39.8 µM,"CYP1A2; CYP 1A2, 39.8 µM, 30-Minute Preincubation",102%
same,activity at 39.8 µM,"CYP1A2; CYP 1A2, 39.8 µM, Zero-Minute Preincubation",98.5%
same,activity at 100 µM,"CYP1A2; CYP 1A2, 100 µM, 30-Minute Preincubation",103%
same,activity at 100 µM,"CYP1A2; CYP 1A2, 100 µM, Zero-Minute Preincubation",97.8%
same,IC50,CYP2C19,> 100000 nM
same,Percent of Control Activity,"CYP2C19; CYP 2C19, 0.01 µM, Zero-Minute Preincubation, 0.01 µM",94.2%
same,Percent of Control Activity,"CYP2C19; CYP 2C19, 0.158 µM, 30-Minute Preincubation, 0.158 µM",96.4%
same,Percent of Control Activity,"CYP2C19; CYP 2C19, 0.158 µM, Zero-Minute Preincubation, 0.158 µM",101.4%
same,Percent of Control Activity,"CYP2C19; CYP 2C19, 0.398 µM, 30-Minute Preincubation, 0.398 µM",100.7%
same,Percent of Control Activity,"CYP2C19; CYP 2C19, 0.398 µM, Zero-Minute Preincubation, 0.398 µM",97.9%
same,Percent of Control Activity,"CYP2C19; CYP 2C19, 1 µM, 30-Minute Preincubation, 1 µM",97.8%
same,Percent of Control Activity,"CYP2C19; CYP 2C19, 1 µM, Zero-Minute Preincubation, 1 µM",102.1%
same,Percent of Control Activity,"CYP2C19; CYP 2C19, 15.8 µM, 30-Minute Preincubation, 15.8 µM",97.1%
same,Percent of Control Activity,"CYP2C19; CYP 2C19, 15.8 µM, Zero-Minute Preincubation, 15.8 µM",107.2% and 102.9%
same,Percent of Control Activity,"CYP2C19; CYP 2C19, 100 µM, 30-Minute Preincubation, 100 µM",97.8% and 97.1%
same,IC50,"CYP2C19; S-Mephenytoin 4′-hydroxylation, T0",> 100000 nM
same,activity at 0.01 µM,"CYP2C19; CYP 2C19, 0.01 µM, 30-Minute Preincubation",103%
same,activity at 0.01 µM,"CYP2C19; CYP 2C19, 0.01 µM, Zero-Minute Preincubation",99.3%
same,activity at 0.158 µM,"CYP2C19; CYP 2C19, 0.158 µM, 30-Minute Preincubation",100%
same,activity at 0.158 µM,"CYP2C19; CYP 2C19, 0.158 µM, Zero-Minute Preincubation",94.4%
same,activity at 0.398 µM,"CYP2C19; CYP 2C19, 0.398 µM, 30-Minute Preincubation",102%
same,activity at 0.398 µM,"CYP2C19; CYP 2C19, 0.398 µM, Zero-Minute Preincubation",96.5%
same,activity at 1 µM,"CYP2C19; CYP 2C19, 1 µM, 30-Minute Preincubation",101%
same,activity at 1 µM,"CYP2C19; CYP 2C19, 1 µM, Zero-Minute Preincubation",95.8%
same,activity at 15.8 µM,"CYP2C19; CYP 2C19, 15.8 µM, 30-Minute Preincubation",102%
same,activity at 15.8 µM,"CYP2C19; CYP 2C19, 15.8 µM, Zero-Minute Preincubation",104%
same,activity at 39.8 µM,CYP2C19; 30-Minute Preincubation,97.7%
same,activity at 39.8 µM,CYP2C19; Zero-Minute Preincubation,94.4%
same,activity at 100 µM,"CYP2C19; CYP 2C19, 100 µM, 30-Minute Preincubation",95.5%
same,activity at 100 µM,"CYP2C19; CYP 2C19, 100 µM, Zero-Minute Preincubation",91.5%
same,IC50,OAT3,> 300000 nM
